Measurements taken from ChEMBL document CHEMBL5465560, “Selectivity Literature for EUbOPEN Chemogenomic Library” (2024).

Key:
[1] = target: Fibroblast growth factor receptor 2 (Homo sapiens) (UniProt P21802); assay: Selectivity interaction (Kinase panel (DSF assay)) EUB0001559a FGFR2
[2] = target: Serine/threonine-protein kinase Chk2 (Homo sapiens) (UniProt O96017); assay: Selectivity interaction (Kinase panel (DSF assay)) EUB0001559a CHEK2
[3] = target: T1, Serine/threonine-protein kinase MAK (Homo sapiens) (UniProt P20794); assay: Selectivity interaction (KinomeScan (DiscoverX)) EUB0001079a MAK; settings: at 1 µM
T1 sequence (whole entry): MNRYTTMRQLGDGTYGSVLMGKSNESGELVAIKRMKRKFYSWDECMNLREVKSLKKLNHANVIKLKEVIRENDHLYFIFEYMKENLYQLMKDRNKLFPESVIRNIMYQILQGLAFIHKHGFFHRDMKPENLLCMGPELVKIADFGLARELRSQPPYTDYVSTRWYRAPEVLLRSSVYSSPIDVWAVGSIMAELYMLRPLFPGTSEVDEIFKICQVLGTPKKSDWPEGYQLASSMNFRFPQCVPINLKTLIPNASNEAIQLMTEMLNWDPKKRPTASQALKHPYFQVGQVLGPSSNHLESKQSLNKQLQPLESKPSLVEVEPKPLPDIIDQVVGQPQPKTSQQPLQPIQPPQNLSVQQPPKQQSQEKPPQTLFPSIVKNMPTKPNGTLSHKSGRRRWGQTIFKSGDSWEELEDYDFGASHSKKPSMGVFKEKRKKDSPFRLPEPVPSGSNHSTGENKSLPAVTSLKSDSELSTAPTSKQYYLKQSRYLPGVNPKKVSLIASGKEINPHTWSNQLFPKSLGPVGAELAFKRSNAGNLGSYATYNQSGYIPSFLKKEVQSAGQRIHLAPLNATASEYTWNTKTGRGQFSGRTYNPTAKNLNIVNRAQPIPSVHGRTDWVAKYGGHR

[4] = target: Casein kinase I isoform gamma-1 (Homo sapiens) (UniProt Q9HCP0); assay: Selectivity interaction (KinomeScan (DiscoverX)) EUB0000666a CSNK1G1; settings: at 10 µM
Casein kinase I isoform gamma-1 (Homo sapiens), sequence (Q9HCP0 whole entry, looked up, canonical isoform): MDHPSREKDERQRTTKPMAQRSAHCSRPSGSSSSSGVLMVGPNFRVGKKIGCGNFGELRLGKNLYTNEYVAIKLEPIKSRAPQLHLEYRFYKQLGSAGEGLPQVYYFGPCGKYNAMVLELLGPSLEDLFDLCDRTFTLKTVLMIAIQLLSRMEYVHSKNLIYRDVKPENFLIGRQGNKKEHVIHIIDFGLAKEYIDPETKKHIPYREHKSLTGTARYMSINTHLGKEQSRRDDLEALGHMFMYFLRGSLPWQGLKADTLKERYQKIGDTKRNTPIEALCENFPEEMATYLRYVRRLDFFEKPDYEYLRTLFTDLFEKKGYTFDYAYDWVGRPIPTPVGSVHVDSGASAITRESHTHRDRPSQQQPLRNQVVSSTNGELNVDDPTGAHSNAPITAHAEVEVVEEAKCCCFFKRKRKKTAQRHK

[5] = target: RAC-beta serine/threonine-protein kinase (Homo sapiens) (UniProt P31751); assay: Selectivity interaction (KinomeScan (DiscoverX)) EUB0000666a AKT2; settings: at 10 µM
RAC-beta serine/threonine-protein kinase (Homo sapiens), sequence (P31751 whole entry): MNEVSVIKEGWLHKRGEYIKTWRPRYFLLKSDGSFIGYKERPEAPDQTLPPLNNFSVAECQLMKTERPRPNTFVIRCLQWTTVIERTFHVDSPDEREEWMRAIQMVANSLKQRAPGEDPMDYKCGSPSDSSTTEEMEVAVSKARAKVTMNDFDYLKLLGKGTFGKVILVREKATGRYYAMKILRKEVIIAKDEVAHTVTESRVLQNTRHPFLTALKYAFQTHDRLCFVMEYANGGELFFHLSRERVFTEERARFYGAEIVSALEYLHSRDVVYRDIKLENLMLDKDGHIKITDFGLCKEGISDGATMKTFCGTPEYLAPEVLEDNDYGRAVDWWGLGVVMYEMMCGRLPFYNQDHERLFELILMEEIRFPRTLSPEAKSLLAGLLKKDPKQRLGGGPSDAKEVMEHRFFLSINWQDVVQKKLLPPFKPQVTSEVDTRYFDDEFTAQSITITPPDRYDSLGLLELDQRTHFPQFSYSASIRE

[6] = target: T2, Serine/threonine-protein kinase Nek1 (Homo sapiens) (UniProt Q96PY6); assay: Selectivity interaction (KinomeScan (DiscoverX)) EUB0000666a NEK1; settings: at 10 µM
T2 sequence (whole entry): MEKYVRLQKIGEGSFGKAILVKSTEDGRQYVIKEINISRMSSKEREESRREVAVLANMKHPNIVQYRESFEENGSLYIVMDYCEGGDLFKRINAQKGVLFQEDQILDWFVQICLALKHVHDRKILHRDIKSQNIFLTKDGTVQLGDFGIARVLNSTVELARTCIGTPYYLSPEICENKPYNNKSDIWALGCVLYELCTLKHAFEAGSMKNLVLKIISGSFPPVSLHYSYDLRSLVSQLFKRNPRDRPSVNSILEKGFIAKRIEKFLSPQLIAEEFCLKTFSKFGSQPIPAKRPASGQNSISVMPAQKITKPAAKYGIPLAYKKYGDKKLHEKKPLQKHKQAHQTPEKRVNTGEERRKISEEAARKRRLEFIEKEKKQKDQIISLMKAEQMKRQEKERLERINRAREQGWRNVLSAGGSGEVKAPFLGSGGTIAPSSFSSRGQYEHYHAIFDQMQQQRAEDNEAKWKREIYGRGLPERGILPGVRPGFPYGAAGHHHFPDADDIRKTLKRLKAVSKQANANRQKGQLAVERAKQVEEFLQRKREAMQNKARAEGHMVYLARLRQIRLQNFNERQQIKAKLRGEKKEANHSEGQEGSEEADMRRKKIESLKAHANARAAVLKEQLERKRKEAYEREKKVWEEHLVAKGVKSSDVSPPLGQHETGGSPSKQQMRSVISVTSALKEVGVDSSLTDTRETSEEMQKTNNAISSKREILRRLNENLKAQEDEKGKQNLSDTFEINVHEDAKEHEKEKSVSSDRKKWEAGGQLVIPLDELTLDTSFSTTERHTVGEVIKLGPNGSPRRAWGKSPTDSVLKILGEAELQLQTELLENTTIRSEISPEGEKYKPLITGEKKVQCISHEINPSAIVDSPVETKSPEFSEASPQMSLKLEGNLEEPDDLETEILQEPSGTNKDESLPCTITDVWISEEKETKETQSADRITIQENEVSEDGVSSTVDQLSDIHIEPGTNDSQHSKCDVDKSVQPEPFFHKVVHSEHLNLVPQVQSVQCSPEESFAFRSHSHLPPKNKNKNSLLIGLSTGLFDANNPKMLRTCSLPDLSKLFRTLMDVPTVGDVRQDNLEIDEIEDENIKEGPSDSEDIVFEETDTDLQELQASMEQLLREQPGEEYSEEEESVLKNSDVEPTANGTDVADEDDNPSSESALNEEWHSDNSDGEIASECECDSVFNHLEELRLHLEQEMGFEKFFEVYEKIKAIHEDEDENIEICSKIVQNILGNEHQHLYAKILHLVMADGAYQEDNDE

[7] = target: 5'-AMP-activated protein kinase catalytic subunit alpha-1 (Homo sapiens, UniProt Q13131); assay: Selectivity interaction (ActivX KiNativ screen (kinase selectivity in THP-1 cell lysates)) EUB0000639a PRKAA1; assay type: subcellular; settings: lysate, at 0.2 µM
5'-AMP-activated protein kinase catalytic subunit alpha-1, sequence (Q13131 whole entry, looked up): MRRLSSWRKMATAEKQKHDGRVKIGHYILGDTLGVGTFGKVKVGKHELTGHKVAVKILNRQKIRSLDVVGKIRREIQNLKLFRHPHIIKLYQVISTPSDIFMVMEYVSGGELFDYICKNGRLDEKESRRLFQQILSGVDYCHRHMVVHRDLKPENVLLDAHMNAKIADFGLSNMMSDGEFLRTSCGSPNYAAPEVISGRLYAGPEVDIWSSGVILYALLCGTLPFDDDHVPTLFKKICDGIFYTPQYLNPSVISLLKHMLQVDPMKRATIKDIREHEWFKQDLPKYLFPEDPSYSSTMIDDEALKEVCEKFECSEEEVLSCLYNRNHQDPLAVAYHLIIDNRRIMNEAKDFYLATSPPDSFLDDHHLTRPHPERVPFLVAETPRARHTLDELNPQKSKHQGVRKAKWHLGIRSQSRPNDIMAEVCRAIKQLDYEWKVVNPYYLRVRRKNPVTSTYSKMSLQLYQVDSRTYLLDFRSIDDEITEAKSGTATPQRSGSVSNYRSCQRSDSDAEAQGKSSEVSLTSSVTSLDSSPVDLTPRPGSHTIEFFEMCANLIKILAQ

[8] = target: T3, Mitogen-activated protein kinase 13 (Homo sapiens) (UniProt O15264); assay: Selectivity interaction (KinomeScan (DiscoverX)) EUB0000618a MAPK13; settings: at 10 µM
T3 sequence (whole entry): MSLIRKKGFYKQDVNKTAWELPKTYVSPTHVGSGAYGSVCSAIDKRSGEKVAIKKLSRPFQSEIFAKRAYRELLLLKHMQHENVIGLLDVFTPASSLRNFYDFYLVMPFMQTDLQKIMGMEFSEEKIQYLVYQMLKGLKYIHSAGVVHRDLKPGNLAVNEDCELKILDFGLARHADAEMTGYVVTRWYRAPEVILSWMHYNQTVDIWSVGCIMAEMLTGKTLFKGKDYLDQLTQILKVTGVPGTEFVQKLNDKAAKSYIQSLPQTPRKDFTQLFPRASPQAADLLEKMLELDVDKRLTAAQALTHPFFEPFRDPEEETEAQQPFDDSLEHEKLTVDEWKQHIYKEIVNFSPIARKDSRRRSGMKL

Fibroblast growth factor receptor 2 (Homo sapiens), sequence (P21802 22-821 limits assumed): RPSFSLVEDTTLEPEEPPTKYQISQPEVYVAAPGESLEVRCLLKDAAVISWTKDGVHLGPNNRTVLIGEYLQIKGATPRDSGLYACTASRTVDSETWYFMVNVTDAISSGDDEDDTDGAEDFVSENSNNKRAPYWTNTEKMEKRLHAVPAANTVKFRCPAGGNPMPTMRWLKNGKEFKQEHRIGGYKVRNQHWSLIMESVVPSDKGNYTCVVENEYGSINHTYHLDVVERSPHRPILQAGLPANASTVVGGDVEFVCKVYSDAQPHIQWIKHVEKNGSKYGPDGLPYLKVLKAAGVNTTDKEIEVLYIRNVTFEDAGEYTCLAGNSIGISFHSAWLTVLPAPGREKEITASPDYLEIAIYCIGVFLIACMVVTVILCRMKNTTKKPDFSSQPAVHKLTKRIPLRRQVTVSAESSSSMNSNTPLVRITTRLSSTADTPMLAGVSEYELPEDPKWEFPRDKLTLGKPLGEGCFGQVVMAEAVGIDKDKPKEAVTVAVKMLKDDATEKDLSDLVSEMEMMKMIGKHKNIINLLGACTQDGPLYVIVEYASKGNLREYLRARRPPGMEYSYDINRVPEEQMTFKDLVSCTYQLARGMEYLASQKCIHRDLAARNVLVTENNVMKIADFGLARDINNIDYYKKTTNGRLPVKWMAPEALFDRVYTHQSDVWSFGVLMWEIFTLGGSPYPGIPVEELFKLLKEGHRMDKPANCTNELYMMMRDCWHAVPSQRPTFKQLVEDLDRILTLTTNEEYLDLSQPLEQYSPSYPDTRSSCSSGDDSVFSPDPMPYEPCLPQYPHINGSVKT
Serine/threonine-protein kinase Chk2 (Homo sapiens), sequence (O96017 whole entry): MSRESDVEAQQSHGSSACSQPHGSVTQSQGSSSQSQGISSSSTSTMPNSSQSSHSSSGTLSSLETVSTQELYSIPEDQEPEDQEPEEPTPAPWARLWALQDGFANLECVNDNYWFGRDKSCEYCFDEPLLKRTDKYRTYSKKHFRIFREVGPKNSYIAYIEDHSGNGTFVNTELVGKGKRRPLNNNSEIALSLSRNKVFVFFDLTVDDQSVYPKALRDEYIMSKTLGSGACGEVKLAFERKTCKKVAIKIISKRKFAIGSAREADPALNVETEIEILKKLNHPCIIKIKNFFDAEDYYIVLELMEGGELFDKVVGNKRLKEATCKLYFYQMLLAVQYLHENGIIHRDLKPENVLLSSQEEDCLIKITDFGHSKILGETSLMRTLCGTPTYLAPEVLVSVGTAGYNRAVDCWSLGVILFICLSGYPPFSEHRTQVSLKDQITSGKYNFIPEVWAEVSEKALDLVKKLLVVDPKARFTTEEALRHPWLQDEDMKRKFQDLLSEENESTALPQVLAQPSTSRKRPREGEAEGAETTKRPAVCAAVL

CN(C(=O)c1cnn2cccnc12)c1cc2c(cc1N1CCOCC1)C(=O)N(C[C@@H](F)C(C)(C)O)C2
dTM [1]: 0.3 K
dTM [2]: 0.2 K

Nc1cnc(N2CCc3cc(S(=O)(=O)Nc4c(F)cc(Cl)cc4F)cc(N4CCCC4=O)c32)nc1 [TP-020n]
% of control [3]: 96%

O=C(NOC[C@H](O)CO)c1ccc(F)c(F)c1Nc1ccc(I)cc1F
% of control [4]: 61%
% of control [5]: 100%
% of control [6]: 98%

CC[C@@H]1[C@H](F)C(=O)N[C@@H]1COc1nccc2cc(C(N)=O)c(OC)cc12 [ZIMLOVISERTIB]
% of inhibition [7]: 8.7%

O[C@H]1CC[C@H](Nc2ncc3nc(Nc4c(F)cc(F)cc4F)n([C@H]4CCOC4)c3n2)CC1
% of control [8]: 90%
